The values below come from publication PMC10706087, “The Subtype Selectivity in Search of Potent Hypotensive Agents among 5,5-Dimethylhydantoin Derived α1-Adrenoceptors Antagonists” (International Journal of Molecular Sciences, 2023).

pIC50, pKi: −log10 of the molar value. Where a name gives a salt, the structure may show the parent alone.

Data set [1] deals with α1-adrenoceptors (α1-ARs), rat cerebral cortex. Nature of the data set: Radioligand binding assay with [3H]-prazosin, affinity for α1-ARs. Conditions: three independent experiments in duplicates, read-out: α1-adrenoceptor affinity Ki. As for the experimental part: In the first step, all synthesized compounds (1–15) were tested in vitro for their affinity for α1-ARs on rat cerebral cortex by the radioligand binding assay using [^3H]-prazosin as a specific radioligand.
The affinity for α1-ARs was determined by radioligand binding assay on rat cerebral cortex using [3H]-prazosin as a specific radioligand. The brains were homogenized in 20 volumes of an ice-cold 50 mM Tris-HCl buffer (pH 7.6) and were centrifuged (MPW Med. Instruments, Warsaw, Poland) at 20,000× g for 20 min (0–4 °C). The cell pellet was resuspended in the Tris-HCl buffer and centrifuged again. Radioligand-binding assay was performed in plates (MultiScreen/Millipore, Burlington, MA, USA). The final incubation mixture (final volume 300 μL) consisted of 240 μL of the membrane suspension, 30 μL of [3H]-Prazosin (0.2 nM) solution, and 30 μL of the buffer containing seven to eight concentrations (10^−11 to 10^−4 M) of the tested compounds. For measuring the unspecific binding, phentolamine, 10 μM (in the case of [3H]-Prazosin) was applied. The incubation was terminated by rapid filtration over glass fiber filters (Whatman GF/C, Sigma-Aldrich) using a vacuum manifold (Millipore). The filters were then washed twice with the assay buffer and placed in scintillation vials with a liquid-scintillation cocktail. Radioactivity was measured in a WALLAC 1409 DSA liquid-scintillation counter (BioSurplus, San Diego, CA, USA).
(§1) All statistics were performed using GraphPad Prism, Version 6.0 (GraphPad Software, San Diego, CA, USA). In the radioligand binding study, data were analyzed by a one-site curve-fitting equation, and inhibition constants (Ki) values were calculated via the Cheng-Prusoff equation [63]. In functional studies, data were analyzed using a sigmoidal dose-response (variable slope) equation. Arterial blood pressure data were analyzed using a two-way ANOVA with Sidak’s post-hoc test for multiple comparisons. A p < 0.05 was considered statistically significant.

The test system of data set [2] is arterial blood pressure of normotensive Wistar rats. Nature of the data set: Influence on blood pressure in normotensive anesthetized rats after i.v. administration. Type of data set: in vivo, rat. Conditions: 2.0 mg/kg i.v., mean, n = 6. On the procedure: In the next step, the hypotensive activity of novel compounds 1–3, 5–9, and 11–14 was determined after i.v. administration to normotensive anesthetized rats. All results are shown in Supplementary Table S1.
The normotensive rats were anesthetized with thiopental (75 mg/kg) by intraperitoneal injection (i.p.). The left carotid artery was cannulated with a polyethylene tub filled with heparin in saline to facilitate pressure measurements using a PowerLab Apparatus (ADInstruments, Sydney, Australia). Blood pressure was measured immediately before administration of the tested compounds or vehicle—time 0 min (initial blood pressure) and 60 min thereafter. Initial blood pressure before administration of the tested chemicals in all experimental groups was similar. The tested compounds were dissolved in a specific vehicle: ethyl alcohol 5% − kolliphor 5% − water 90%. All tested chemicals were administrated intravenously (i.v.) at a constant volume of 1 mL/kg after 20 min of stabilization period. The compounds were tested at a starting dose of 2 mg/kg. If the hypotensive activity was found, the dose was reduced by half. The dosing was continued until the hypotensive effects disappeared. Urapidil was used as a reference compound.
as §1

Data set [3] addresses T1, human adrenergic receptor α1B (Homo sapiens, UniProt P35368).
T1 sequence (P35368 1-520): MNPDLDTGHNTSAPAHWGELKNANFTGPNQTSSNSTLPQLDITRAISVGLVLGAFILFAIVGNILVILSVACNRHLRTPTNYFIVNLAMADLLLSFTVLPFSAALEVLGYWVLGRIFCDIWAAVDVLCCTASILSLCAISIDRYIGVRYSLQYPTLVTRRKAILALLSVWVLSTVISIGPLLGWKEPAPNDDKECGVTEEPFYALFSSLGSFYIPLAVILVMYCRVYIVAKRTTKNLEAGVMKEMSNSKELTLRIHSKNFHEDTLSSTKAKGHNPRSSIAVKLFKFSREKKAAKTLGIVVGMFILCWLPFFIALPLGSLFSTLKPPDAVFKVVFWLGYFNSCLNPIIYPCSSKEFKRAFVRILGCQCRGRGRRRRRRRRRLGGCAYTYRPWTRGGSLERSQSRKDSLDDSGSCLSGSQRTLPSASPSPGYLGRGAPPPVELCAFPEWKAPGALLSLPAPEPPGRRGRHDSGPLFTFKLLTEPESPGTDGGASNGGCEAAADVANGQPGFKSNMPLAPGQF
Put plainly: Intrinsic activity, aequorin luminescence functional assay at α1B-AR. It counts as cell-based. Conditions: for α1B-AR Profile: agonist/antagonist profile; for pIC50: cells expressing aequorin and human α1B, against phenylephrine, means of three independent experiments in duplicates; for Selectivity Ratio α1A/α1B: selectivity for α1B-AR (IC50(α1A-AR)/IC50(α1B-AR)). As for the experimental part:
(§2) The subtype selectivity for α1A and α1B was calculated as IC50(α1B-AR)/IC50(α1A-AR) and IC50(α1A-AR)/IC50(α1B-AR) ratio, respectively.
(§3) Intrinsic activity at the α1-AR subtypes studies were performed using the cells expressing mitochondrially-targeted aequorin and one of the human adrenergic receptor α1A or α1B (PerkinElmer, Boston, MA, USA), according to the manufacturer’s instructions. For measurement, frozen cells were thawed and re-suspended in 10 mL of assay buffer containing 5 μM “Coelenterazine h”. This cell suspension was put in a 10 mL Falcon tube, fixed onto a rotating heel, and incubated overnight at rt in the dark (8 rpm; 45° angle). Cells were diluted with Assay Buffer to 5000 cells/20 μL. […] The light emitted was recorded for 20 s. Cells with antagonists were incubated for 15 min at room temperature. […] Luminescence was measured using the multidetection microplate reader (POLARstar Omega, BMG LABTECH, Ortenberg, Germany).
as §1

Data set [4] has as its target T2, human adrenergic receptor α1A (Homo sapiens, UniProt P35348).
T2 sequence (P35348 1-466): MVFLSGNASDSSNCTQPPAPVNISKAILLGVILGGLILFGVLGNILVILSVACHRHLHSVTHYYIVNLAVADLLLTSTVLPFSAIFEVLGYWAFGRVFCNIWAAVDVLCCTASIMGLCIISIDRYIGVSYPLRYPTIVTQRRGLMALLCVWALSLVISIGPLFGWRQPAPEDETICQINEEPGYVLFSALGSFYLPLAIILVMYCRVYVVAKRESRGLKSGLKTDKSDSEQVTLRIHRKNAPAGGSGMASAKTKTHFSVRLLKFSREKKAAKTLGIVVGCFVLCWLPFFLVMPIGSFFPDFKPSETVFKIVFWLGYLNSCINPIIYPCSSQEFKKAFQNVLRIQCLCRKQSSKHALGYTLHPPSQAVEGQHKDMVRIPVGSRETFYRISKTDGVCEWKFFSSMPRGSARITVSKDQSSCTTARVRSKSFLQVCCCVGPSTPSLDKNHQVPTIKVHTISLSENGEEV
Nature of the data set: Intrinsic activity, aequorin luminescence functional assay at α1A-AR. It counts as cell-based. Conditions: for α1A-AR Profile: agonist/antagonist profile; for pIC50: cells expressing aequorin and human α1A, against phenylephrine, means of three independent experiments in duplicates; for Selectivity Ratio α1B/α1A: selectivity for α1A-AR (IC50(α1B-AR)/IC50(α1A-AR)). As for the experimental part:
as §2, §3, §1

The mark [5] stands for this setting: 0 min (initial, before administration).

On to `CC1(C)C(=O)N(Cc2ccc(Cl)cc2Cl)C(=O)N1CCCCCCN1CCN(c2ccc(Cl)c(Cl)c2)CC1.Cl` [Compound 4, 3-(2,4-dichlorobenzyl)-1-(6-(4-(3,4-dichlorophenyl)piperazin-1-yl)hexyl)-5,5-dimethylimidazolidine-2,4-dione hydrochloride], for which the melting point (as a rule, the temperature of the solid-liquid transition) was 154 to 156 °C. The negative logarithm of the Ki (pKi) – broadly, the Ki on a negative log10 scale, so that one unit is a factor of ten – in data set [1] was 6.59.
For `CC1(C)C(=O)N(Cc2ccc(Cl)cc2Cl)C(=O)N1CC(O)CN1CCN(c2ccccc2F)CC1` (stereo not shown) [Compound 7], the Diastolic blood pressure in data set [2] (setting [5]) stood at 103.2; in data set [2] (5 min), 91.5; in data set [2] (10 min), 91.0; in data set [2] (20 min), 93.0; in data set [2] (30 min), 92.0; in data set [2] (40 min), 94.3. Besides, the Diastolic blood pressure is on record as 93.2 in data set [2] (50 min) and 91.3 in data set [2] (60 min). Also, the Systolic blood pressure is given as 137.8 in data set [2] (setting [5]); 125.3 in data set [2] (5 min); 124.3 in data set [2] (10 min); 121.8 in data set [2] (20 min); 123.8 in data set [2] (30 min); 123.7 in data set [2] (40 min). The Systolic blood pressure in data set [2] (50 min) was found to be 122.7; in data set [2] (60 min), 121.5. Also, the pKi in data set [1] was 7.00. In addition, the “α1B-AR Profile” value in data set [3] is given as “Antagonist”. Further, the pIC50 (in general, −log10 of the IC50, conventionally taken in molar units) is 6.32 in data set [3] and 5.85 in data set [4]. In addition, the “Selectivity Ratio α1A/α1B” value in data set [3] was determined as 2.92. Also, the “α1A-AR Profile” value in data set [4] is “Antagonist”. Besides, in data set [4], the “Selectivity Ratio α1B/α1A” value stood at 0.34.
Consider `CC1(C)C(=O)N(Cc2ccc(Cl)cc2Cl)C(=O)N1CC(O)CN1CCN(c2ccc(F)cc2)CC1` (stereo not shown) [Compound 8], for which the Diastolic blood pressure in data set [2] (setting [5]) is listed as 96.7; in data set [2] (5 min), 87.8; in data set [2] (10 min) it was 89.0; in data set [2] (20 min), 88.2; in data set [2] (30 min), 86.5; in data set [2] (40 min) it was 84.7. The Diastolic blood pressure is reported as 85.5 in data set [2] (50 min) and 84.3 in data set [2] (60 min). Also, the Systolic blood pressure amounted to 129.2 in data set [2] (setting [5]); 121.5 in data set [2] (5 min); 120.5 in data set [2] (10 min); 120.0 in data set [2] (20 min); 120.2 in data set [2] (30 min); 119.5 in data set [2] (40 min). Also, the Systolic blood pressure in data set [2] (50 min) worked out at 120.0; in data set [2] (60 min), 119.0. In addition, the pKi in data set [1] is 7.36. Besides, the “α1B-AR Profile” value in data set [3] is “Antagonist”. Moreover, the pIC50 in data set [3] is 6.77; in data set [4], 6.09. The “Selectivity Ratio α1A/α1B” value in data set [3] stood at 4.79. In addition, the “α1A-AR Profile” value in data set [4] is “Antagonist”. In addition, the “Selectivity Ratio α1B/α1A” value in data set [4] is 0.21.
In the case of `CC1(C)C(=O)N(Cc2ccc(Cl)cc2Cl)C(=O)N1CC(O)CN1CCN(c2ccc(F)cc2F)CC1` (stereo not shown) [Compound 9], the Diastolic blood pressure is 100.3 in data set [2] (setting [5]); 98.2 in data set [2] (5 min); 93.5 in data set [2] (10 min); 90.8 in data set [2] (20 min); 93.2 in data set [2] (30 min); 92.0 in data set [2] (40 min). Also, the Diastolic blood pressure in data set [2] (50 min) is listed as 90.3; in data set [2] (60 min), 87.3. The Systolic blood pressure in data set [2] (setting [5]) is 135.2; in data set [2] (5 min), 133.3; in data set [2] (10 min) it was 127.0; in data set [2] (20 min), 125.0; in data set [2] (30 min) it was 128.2; in data set [2] (40 min), 128.2. Further, the Systolic blood pressure in data set [2] (50 min) is reported as 127.2; in data set [2] (60 min), 122.0. Also, the negative-log Ki (pKi) in data set [1] was 7.38. Moreover, the “α1B-AR Profile” value in data set [3] was “Antagonist”. In addition, the pIC50 in data set [3] is 6.83; in data set [4], 6.79. In addition, the “Selectivity Ratio α1A/α1B” value in data set [3] is reported as 1.10. The “α1A-AR Profile” value in data set [4] was “Antagonist”. The “Selectivity Ratio α1B/α1A” value in data set [4] turned out to be 0.91.
In the case of `CC1(C)C(=O)N(Cc2ccc(Cl)cc2Cl)C(=O)N1CC(O)CN1CCN(C(c2ccccc2)c2ccccc2)CC1` (stereo not shown) [Compound 15], in data set [1], the pKi was 5.61.
Consider `CNC[C@H](O)c1cccc(O)c1` [Phenylephrine, phenylephrine, reference compound], for which, in data set [3], the “α1B-AR Profile” value is on record as “Agonist”. The “α1A-AR Profile” value in data set [4] is “Agonist”.
For the molecule `CCOc1ccccc1OCCN[C@H](C)Cc1ccc(OC)c(S(N)(=O)=O)c1` [Tamsulosin, tamsulosin hydrochloride, reference compound], in data set [3], the “α1B-AR Profile” value is listed as “Antagonist” and the pIC50 is 9.32. Also, the “α1A-AR Profile” value in data set [4] is recorded as “Antagonist”.
Consider `COc1cc2nc(N3CCN(C(=O)C4CCCO4)CC3)nc(N)c2cc1OC` (stereo not shown) [Terazosin, terazosin hydrochloride, reference compound], for which the “α1B-AR Profile” value in data set [3] is recorded as “Antagonist”. Moreover, the “α1A-AR Profile” value in data set [4] was “Antagonist”.
